The results in this text go back to ChEMBL document CHEMBL5291721, “A preclinical secondary pharmacology resource illuminates target-adverse drug reaction associations of marketed drugs” (Nat Commun, 2023).

In experiment [1] the target is T1, Muscarinic acetylcholine receptor M2 (Homo sapiens, UniProt P08172).
T1 sequence (P08172 whole entry): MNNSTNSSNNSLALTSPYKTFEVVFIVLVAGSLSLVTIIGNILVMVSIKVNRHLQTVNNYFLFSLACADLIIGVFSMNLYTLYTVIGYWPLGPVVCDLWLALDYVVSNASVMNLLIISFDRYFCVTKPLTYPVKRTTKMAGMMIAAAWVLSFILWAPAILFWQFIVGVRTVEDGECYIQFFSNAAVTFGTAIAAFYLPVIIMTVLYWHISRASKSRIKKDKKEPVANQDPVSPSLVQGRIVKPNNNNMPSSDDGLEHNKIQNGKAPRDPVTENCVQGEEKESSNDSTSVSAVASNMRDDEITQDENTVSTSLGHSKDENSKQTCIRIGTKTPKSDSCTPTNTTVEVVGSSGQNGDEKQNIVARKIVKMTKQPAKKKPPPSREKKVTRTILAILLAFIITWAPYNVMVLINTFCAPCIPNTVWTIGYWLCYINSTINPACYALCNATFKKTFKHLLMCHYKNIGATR
The format is functional, cell-based.

The target in another experiment is Cannabinoid receptor 1 (Homo sapiens, UniProt P21554). The format is functional, cell-based.
Sequence of Cannabinoid receptor 1 (P21554 whole entry): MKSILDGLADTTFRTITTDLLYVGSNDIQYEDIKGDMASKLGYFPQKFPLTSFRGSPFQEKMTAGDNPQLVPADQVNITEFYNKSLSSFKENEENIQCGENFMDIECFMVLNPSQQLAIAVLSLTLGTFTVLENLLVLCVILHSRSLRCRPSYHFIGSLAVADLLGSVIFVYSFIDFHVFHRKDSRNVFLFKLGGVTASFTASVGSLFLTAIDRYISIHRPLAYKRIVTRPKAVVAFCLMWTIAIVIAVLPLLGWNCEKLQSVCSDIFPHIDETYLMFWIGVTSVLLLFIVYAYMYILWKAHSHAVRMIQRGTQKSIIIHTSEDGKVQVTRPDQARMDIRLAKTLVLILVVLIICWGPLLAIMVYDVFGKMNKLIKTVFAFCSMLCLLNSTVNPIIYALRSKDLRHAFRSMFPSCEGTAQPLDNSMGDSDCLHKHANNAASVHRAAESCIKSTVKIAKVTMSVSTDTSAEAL
The target of experiment [2] is T2, Alpha-1A adrenergic receptor (Homo sapiens, UniProt P35348).
T2 sequence (P35348 whole entry): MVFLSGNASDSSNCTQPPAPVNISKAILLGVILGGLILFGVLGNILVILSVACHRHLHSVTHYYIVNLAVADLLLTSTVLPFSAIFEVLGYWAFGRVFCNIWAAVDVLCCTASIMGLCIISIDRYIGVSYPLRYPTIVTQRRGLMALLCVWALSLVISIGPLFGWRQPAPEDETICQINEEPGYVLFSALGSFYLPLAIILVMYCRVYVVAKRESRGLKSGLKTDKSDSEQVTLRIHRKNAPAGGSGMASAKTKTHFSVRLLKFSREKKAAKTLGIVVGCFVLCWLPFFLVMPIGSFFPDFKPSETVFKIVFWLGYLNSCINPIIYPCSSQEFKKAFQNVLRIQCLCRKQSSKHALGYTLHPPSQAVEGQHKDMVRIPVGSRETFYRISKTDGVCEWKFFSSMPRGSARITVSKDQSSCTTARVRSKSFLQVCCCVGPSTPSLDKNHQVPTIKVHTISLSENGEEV
The class given is functional, cell-based.

The next experiment addresses T3, Endothelin-1 receptor (Homo sapiens, UniProt P25101).
T3 sequence (P25101 whole entry): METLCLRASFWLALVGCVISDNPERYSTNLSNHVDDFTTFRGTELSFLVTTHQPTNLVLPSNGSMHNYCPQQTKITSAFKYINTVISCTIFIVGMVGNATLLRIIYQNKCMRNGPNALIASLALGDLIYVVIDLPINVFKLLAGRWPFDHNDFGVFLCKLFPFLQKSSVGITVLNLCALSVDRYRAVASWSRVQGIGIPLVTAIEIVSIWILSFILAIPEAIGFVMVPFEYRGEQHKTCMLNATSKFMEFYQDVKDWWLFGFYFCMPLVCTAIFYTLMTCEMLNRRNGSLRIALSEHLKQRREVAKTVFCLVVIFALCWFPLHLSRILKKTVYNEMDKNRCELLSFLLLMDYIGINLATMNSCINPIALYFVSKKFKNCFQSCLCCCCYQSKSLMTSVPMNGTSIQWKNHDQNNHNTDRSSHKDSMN

A further experiment addresses Vasopressin V1a receptor (Homo sapiens, UniProt P37288).
The target in experiment [3] is cGMP-inhibited 3',5'-cyclic phosphodiesterase 3A (Homo sapiens, UniProt Q14432). The format is functional.
Sequence of cGMP-inhibited 3',5'-cyclic phosphodiesterase 3A (Q14432 whole entry): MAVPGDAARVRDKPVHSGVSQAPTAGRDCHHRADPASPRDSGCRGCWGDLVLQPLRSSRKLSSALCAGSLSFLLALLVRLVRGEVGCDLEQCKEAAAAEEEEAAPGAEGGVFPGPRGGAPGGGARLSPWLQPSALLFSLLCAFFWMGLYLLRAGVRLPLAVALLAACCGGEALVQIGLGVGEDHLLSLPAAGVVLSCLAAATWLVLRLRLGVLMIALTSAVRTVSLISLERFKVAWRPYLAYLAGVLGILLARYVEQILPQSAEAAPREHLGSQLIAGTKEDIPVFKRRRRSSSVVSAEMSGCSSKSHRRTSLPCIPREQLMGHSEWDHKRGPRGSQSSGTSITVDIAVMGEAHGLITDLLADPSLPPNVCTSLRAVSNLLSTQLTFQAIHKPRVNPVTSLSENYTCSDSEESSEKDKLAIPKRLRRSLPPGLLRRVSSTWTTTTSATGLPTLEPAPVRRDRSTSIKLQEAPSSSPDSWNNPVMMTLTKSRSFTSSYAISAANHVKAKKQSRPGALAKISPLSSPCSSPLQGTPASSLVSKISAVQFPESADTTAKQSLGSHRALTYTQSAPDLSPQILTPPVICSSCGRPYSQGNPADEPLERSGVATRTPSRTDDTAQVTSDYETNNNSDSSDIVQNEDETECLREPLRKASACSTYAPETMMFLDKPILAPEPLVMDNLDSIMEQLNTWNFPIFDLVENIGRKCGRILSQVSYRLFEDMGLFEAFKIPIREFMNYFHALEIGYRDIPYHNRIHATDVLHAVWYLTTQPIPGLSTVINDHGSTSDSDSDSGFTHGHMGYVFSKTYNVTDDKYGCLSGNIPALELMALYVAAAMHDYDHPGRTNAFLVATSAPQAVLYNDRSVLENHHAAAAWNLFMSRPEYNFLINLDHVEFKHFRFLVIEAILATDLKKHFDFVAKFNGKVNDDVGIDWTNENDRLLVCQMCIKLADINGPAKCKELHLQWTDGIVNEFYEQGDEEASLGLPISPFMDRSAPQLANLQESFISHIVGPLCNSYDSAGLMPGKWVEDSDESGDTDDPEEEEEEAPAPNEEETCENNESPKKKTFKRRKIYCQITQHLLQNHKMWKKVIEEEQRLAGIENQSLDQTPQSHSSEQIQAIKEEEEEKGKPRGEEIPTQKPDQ
For experiment [4], the target named is Gamma-aminobutyric acid receptor subunit alpha-1 (Rattus norvegicus, UniProt P62813).
Sequence of Gamma-aminobutyric acid receptor subunit alpha-1 (P62813 whole entry): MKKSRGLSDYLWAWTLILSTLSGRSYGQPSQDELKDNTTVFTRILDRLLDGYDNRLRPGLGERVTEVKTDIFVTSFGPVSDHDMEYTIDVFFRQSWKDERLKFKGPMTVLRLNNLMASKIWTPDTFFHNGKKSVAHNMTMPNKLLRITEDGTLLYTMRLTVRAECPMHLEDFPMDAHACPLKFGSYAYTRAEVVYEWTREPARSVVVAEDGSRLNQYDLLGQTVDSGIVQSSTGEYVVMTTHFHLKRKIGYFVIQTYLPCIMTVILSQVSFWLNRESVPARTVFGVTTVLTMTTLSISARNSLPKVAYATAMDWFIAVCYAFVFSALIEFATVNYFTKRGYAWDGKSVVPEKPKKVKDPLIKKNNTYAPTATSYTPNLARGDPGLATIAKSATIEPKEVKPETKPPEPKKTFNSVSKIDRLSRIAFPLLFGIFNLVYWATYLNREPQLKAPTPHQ
The target of another experiment is T4, Glucocorticoid receptor (Homo sapiens, UniProt P04150).
T4 sequence (P04150 whole entry): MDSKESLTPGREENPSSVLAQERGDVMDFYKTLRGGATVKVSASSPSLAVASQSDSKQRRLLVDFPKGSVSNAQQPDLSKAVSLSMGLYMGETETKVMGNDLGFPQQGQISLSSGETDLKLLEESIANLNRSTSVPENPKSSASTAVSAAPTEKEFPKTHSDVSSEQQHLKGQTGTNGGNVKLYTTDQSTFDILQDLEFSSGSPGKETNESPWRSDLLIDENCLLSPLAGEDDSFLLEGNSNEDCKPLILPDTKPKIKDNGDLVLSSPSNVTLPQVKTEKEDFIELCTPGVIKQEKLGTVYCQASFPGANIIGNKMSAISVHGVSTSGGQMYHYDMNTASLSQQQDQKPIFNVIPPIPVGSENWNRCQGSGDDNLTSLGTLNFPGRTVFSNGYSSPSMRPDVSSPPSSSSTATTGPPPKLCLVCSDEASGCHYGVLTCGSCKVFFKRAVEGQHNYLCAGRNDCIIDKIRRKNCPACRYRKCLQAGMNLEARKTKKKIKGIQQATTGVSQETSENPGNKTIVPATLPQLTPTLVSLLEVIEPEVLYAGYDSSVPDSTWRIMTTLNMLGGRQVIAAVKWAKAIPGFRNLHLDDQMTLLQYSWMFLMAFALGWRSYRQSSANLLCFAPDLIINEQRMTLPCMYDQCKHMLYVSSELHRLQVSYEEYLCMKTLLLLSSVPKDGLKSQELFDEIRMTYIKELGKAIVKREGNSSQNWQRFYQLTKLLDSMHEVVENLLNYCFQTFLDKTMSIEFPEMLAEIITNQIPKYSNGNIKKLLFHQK

For experiment [5], the target named is T2, Alpha-1A adrenergic receptor. The class given is functional, cell-based. The source holds these as a separate data set.

Structures are written as SMILES. Some results are limits rather than exact numbers.
Note: assay procedure not described here.

Sequence of Vasopressin V1a receptor (P37288 whole entry): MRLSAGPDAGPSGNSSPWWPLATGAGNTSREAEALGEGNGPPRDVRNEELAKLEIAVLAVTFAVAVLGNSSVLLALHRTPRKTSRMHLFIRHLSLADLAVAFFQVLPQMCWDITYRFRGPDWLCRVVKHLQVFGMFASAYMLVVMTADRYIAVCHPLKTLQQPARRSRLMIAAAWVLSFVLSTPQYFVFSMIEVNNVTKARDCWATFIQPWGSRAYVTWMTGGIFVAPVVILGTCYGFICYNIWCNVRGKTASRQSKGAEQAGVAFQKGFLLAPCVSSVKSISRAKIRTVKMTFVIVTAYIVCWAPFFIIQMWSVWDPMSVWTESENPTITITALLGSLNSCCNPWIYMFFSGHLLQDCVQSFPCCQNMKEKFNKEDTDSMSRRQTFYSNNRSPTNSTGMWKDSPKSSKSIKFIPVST

For `CCOCC(O)COc1ccc(NC(=O)CC[S+](C)C)cc1` (stereo not given), the AC50 (in experiment [1]; at Cannabinoid receptor 1; in experiment [2]; at Endothelin-1 receptor; at Vasopressin V1a receptor) was greater than 30 µM throughout.
On to `O=C(O)[C@@H](S)[C@@H](S)C(=O)O`, for which the AC50 (commonly the midpoint of the concentration-response curve, whichever way the signal moves) in experiment [3] is greater than 30 µM.
With `CCC[C@@]1(CCc2ccccc2)CC(O)=C([C@H](CC)c2cccc(NS(=O)(=O)c3ccc(C(F)(F)F)cn3)c2)C(=O)O1`, the AC50 in experiment [1] is 6.3 µM; on Cannabinoid receptor 1, greater than 30 µM; in [2], greater than 30 µM; on Endothelin-1 receptor, greater than 30 µM; on Vasopressin V1a receptor it was greater than 30 µM.
As for `C=CC1=C(C(=O)O)N2C(=O)[C@@H](NC(=O)/C(=N\O)c3csc(N)n3)[C@H]2SC1`, the AC50 in [4] was greater than 10 µM; in experiment [1], greater than 10 µM; at Cannabinoid receptor 1 it was greater than 30 µM; in [2], greater than 30 µM; on Vasopressin V1a receptor, greater than 30 µM.
Turning to `O=C(O)COC(=O)Cc1ccccc1Nc1c(Cl)cccc1Cl` [ACECLOFENAC], the AC50 was greater than 10 µM in [4]; greater than 10 µM in experiment [1]; greater than 30 µM at Cannabinoid receptor 1; greater than 30 µM in experiment [2]; greater than 30 µM at Vasopressin V1a receptor.
Take `CC[N+](CC)(CCNC(=O)C(=O)NCC[N+](CC)(CC)Cc1ccccc1Cl)Cc1ccccc1Cl` [AMBENONIUM]: the AC50 is greater than 30 µM in experiment [4]; 2.2 µM in experiment [1]; greater than 30 µM on Cannabinoid receptor 1; greater than 30 µM on Endothelin-1 receptor; greater than 30 µM at Vasopressin V1a receptor.
With `NCCCCCC(=O)O` [AMINOCAPROIC ACID], the AC50 (in experiment [4]; in experiment [1]; on Glucocorticoid receptor) was greater than 10 µM throughout.
For the compound `CN1CC2c3ccccc3Oc3ccc(Cl)cc3C2C1` (stereo not given) [ASENAPINE], the AC50 (in experiment [1]; at Cannabinoid receptor 1; in experiment [2]; on Endothelin-1 receptor; on Vasopressin V1a receptor) was greater than 30 µM throughout.
For the compound `CC(C)NCC(O)COc1ccc(CC(N)=O)cc1` (stereo not given) [ATENOLOL], the AC50 (in [2]; on Vasopressin V1a receptor) was greater than 30 µM in each case.
For `Cn1cnc2c(F)c(Nc3ccc(Br)cc3F)c(C(=O)NOCCO)cc21` [BINIMETINIB], the AC50 (in [1]; at Cannabinoid receptor 1; in experiment [2]; at Endothelin-1 receptor; on Vasopressin V1a receptor) was greater than 30 µM each time.
On to `CC(C)C[C@H](NC(=O)[C@H](Cc1ccccc1)NC(=O)c1cnccn1)B(O)O` [BORTEZOMIB], for which the AC50 (in [4]; in [1]; at Vasopressin V1a receptor; on Glucocorticoid receptor) was greater than 30 µM each time.
`C[C@H](CS)C(=O)N1CCC[C@H]1C(=O)O` [CAPTOPRIL]: the AC50 in experiment [4] was greater than 10 µM; in [1] it was greater than 10 µM; in experiment [2] it was greater than 30 µM; on Glucocorticoid receptor, greater than 30 µM.
For `O=C(Cc1cccs1)N[C@@H]1C(=O)N2C(C(=O)[O-])=C(C[n+]3ccccc3)CS[C@H]12` [CEPHALORIDINE], the AC50 (in experiment [4]; in experiment [1]; at Cannabinoid receptor 1; in [2]; in experiment [3]) was greater than 30 µM each time.
`C[C@H](CCC(=O)O)[C@H]1CC[C@H]2[C@@H]3[C@H](O)C[C@@H]4C[C@H](O)CC[C@]4(C)[C@H]3CC[C@]12C` [CHENODIOL]: the AC50 in [1] is 27 µM; on Cannabinoid receptor 1, greater than 30 µM; in experiment [2], greater than 30 µM; at Endothelin-1 receptor, greater than 30 µM; at Vasopressin V1a receptor, greater than 30 µM.
For the compound `O=C(O)[C@H]1/C(=C/CO)O[C@@H]2CC(=O)N21` [CLAVULANIC ACID], the AC50 (in [1]; on Cannabinoid receptor 1; in experiment [2]; on Endothelin-1 receptor; on Vasopressin V1a receptor) was greater than 30 µM each time.
For the compound `O=P1(N(CCCl)CCCl)NCCCO1` (stereo not given) [CYCLOPHOSPHAMIDE ANHYDROUS], the AC50 in experiment [5] and in experiment [3] was greater than 30 µM throughout.
In the case of `CCN(CCO)CCCC(C)Nc1ccnc2cc(Cl)ccc12` (stereo not given) [HYDROXYCHLOROQUINE], the AC50 (in experiment [4]; in experiment [1]; at Glucocorticoid receptor) was greater than 10 µM throughout.
For the compound `C[C@@H](O)[C@H]1C(=O)N2C(C(=O)O)=C(SCCN=CN)C[C@H]12` [IMIPENEM ANHYDROUS], the AC50 (in [1]; at Cannabinoid receptor 1; in [2]; on Endothelin-1 receptor; at Vasopressin V1a receptor) was greater than 300 µM each time.
Take `CNC1(c2ccccc2Cl)CCCCC1=O` (stereo not given) [KETAMINE]: the AC50 in experiment [5] and in experiment [3] was greater than 30 µM in each case.
In the case of `O=C(c1ccccc1)c1ccc2n1CCC2C(=O)O` (stereo not given) [KETOROLAC], the AC50 was greater than 30 µM in experiment [4], greater than 30 µM in [1], greater than 30 µM in experiment [2] and greater than 10 µM on Vasopressin V1a receptor.
Consider `O=NN(CCCl)C(=O)NC1CCCCC1` [LOMUSTINE], for which the AC50 in experiment [5] was greater than 3 µM; in experiment [3], greater than 30 µM.
With `CNC1(C)C2CCC(C2)C1(C)C` (stereo not given) [MECAMYLAMINE], the AC50 (in experiment [1]; on Vasopressin V1a receptor; at Glucocorticoid receptor) was greater than 10 µM throughout.
For the compound `CO[C@@H]1[C@@H](OC(N)=O)[C@@H](O)[C@H](Oc2ccc3c(O)c(NC(=O)c4ccc(O)c(CC=C(C)C)c4)c(=O)oc3c2C)OC1(C)C` [NOVOBIOCIN], the half-maximal activity concentration (AC50) (in experiment [1]; at Cannabinoid receptor 1; in experiment [2]; on Endothelin-1 receptor; on Vasopressin V1a receptor) was greater than 30 µM in each case.
In the case of `C#CCN(C)Cc1ccccc1` [PARGYLINE], the AC50 (in experiment [4]; in [1]; at Cannabinoid receptor 1; in experiment [2]; in experiment [3]) was greater than 30 µM in each case.
As for `CCC1(c2ccccc2)C(=O)NCNC1=O` [PRIMIDONE], the AC50 (in experiment [1]; at Glucocorticoid receptor) was greater than 10 µM throughout.
Regarding `CCOc1ccccc1OCCN[C@H](C)Cc1ccc(OC)c(S(N)(=O)=O)c1` [TAMSULOSIN], the half-maximal activity concentration (AC50) in [4] is greater than 10 µM; in [1], greater than 10 µM; at Vasopressin V1a receptor it was greater than 30 µM.
With `C[C@H](Cn1cnc2c(N)ncnc21)OCP(=O)(O)O` [TENOFOVIR ANHYDROUS], the AC50 (in experiment [4]; in experiment [1]; in experiment [2]; on Vasopressin V1a receptor; at Glucocorticoid receptor) was greater than 30 µM throughout.
